Read-outs that look alike come from different tables or passages of the source.
Assays:
[1] = system: FVO strain of P. falciparum; assay: Efficacy in P. falciparum-challenged Aotus monkeys; type: in vivo, Plasmodium falciparum in Aotus lemurinus lemurinus
Procedure: (§1) The P. berghei-mouse efficacy data were obtained from the WRAIR chemical information system (subcutaneous testing) or from recent tests conducted at AFRIMS, Thailand or at the University of Miami using a modified version of the Thompson test. Groups of five mice were inoculated through i.p. injection on day 0 (usually with 1×106 P. berghei-parasitized erythrocytes). The drugs in Table 1 were administered either subcutaneously or orally for three days (usually on days 3-5) at doses of 1.25-160 mg/kg in two to four fold increments. Cure was defined as survival until day 60 (subcutaneous dosing) or day 31 post-treatment (oral dosing). […] The minimum effective dose was the lowest dose level that cured at least one of five mice. The Aotus studies were performed according to Obaldia; Detection of Klebsiella pnuumoniae antibodies in Aotus l. lemurinus (Panamanian owl monkey) using an enzyme linked immunosorbent assay (ELIA) test; Lab Anim (25)133-141 (1991) and Obaldia et al., WR 238605, chloroquine, and their combinations as blood schizonticides against a chloroquine-resistant strain of Plasmodium vivax in Aotus monkeys; Am. J. Trop. Med. Hyg. (56)508-510 (1997), which are incorporated by reference, herein. Groups of two Aotus lemurinus 6 lemurinus of the karyotype VIII or IX (27) male and female monkeys with weights ranging from 742-970 g were inoculated with 5×10^6 parasites of either the FVO strain of P. falciparum or the AMRU1 strain of P. vivax. Both of these strains are chloroquine resistant. […] Monkeys were examined and thick Giemsa-stained blood smears were prepared and enumerated daily (17) to monitor the course of infection. […] In some instances, a high dose of the test drug was used to retreat monkeys instead of the mefloquine rescue. Monkeys are considered cured if they are parasite free 90 days post treatment. […] Plasma samples were taken from the monkeys in some studies for quantification of metabolites. Additional blood samples were taken as appropriate for complete blood counts and serum chemistry. Research was conducted in compliance with the Animal Welfare Act and other federal statutes and regulations relating to animals and experiments involving animals and adheres to principles stated in the Guide for the Care and Use of Laboratory Animals, NRC Publication, 1996 edition (34).

[2] = Aotus, 10 mg/kg/day oral x7
Procedure: as §1

[3] = mouse, in vivo
[4] = system: P. falciparum TM91C235; assay: In vitro antimalarial activity against P. falciparum TM91C235; type: cell-based, Plasmodium falciparum
Procedure: The in vitro activities of AAQMs against P. falciparum strains W2, D6, TM91C235 and TM90C2A were evaluated using the method of Desjardins et al. as modified by Milhous et al. W2 is chloroquine resistant and mefloquine sensitive, D6 is chloroquine sensitive but naturally less susceptible to mefloquine, TM91C235 is resistant to mefloquine, chloroquine and pyrimethamine as is TM90C2A, however this latter parasite is a two pfmdr1 copy strain. We routinely run mefloquine in this screen as a control to ensure assay validity.

[5] = system: Plasmodium falciparum malaria; conditions: P. falciparum malaria, South East Asia; WR030090: field trials; cited from earlier work
[6] = system: Balb/c 3T3 mouse fibroblast cells; assay: 3T3 neutral red uptake (NRU) phototoxicity test; type: cell-based
Source text: A pharmacophore for phototoxicity was developed to be used as an in silico screening tool to determine the minimum phototoxic concentration for a number of AAQMS (WR069878 and those indicated in Table 5). Minimum phototoxic concentration in a yeast assay for a number of AAQMS, as per Ison et al.; Phototoxicity of Quinoline methanols and other drugs in mice and yeast; J. Invest. Dermatol. (52)193-198 (1969) were used to generate a three-dimensional pharmacophore model using the HypoGen algorithm of the […]® (Accelrys software Inc.) methodology as per Bhattacharjee et al.; A 3D QSAR pharmacophore model and quantum chemical structure—activity analysis of chloroquine(CQ)-resistance reversal; J. Chem Inf. Comput Sci. (42) 1212-1220 (2002), and Dow et al.; as discussed in Antimicrob Agents Chemother. (48)2624-2632 (2004), cited above, both Bhattacharjee et al. and Dow et al, incorporated herein, by reference. The structures of clinically used quinoline methanols were mapped onto the pharmacophores and estimated values for minimum phototoxic concentration were generated. The 3T3 neutral red uptake (NRU) phototoxicity test, conducted by MB Research Laboratories (Spinnerstown, Pa.), was used to identify quinoline methanols (WR069878 and those in Table 5) that have the potential to exert in vivo phototoxicity after systemic application. Briefly, the central 60 wells of two 96-well plates per AAQM were seeded with Balb/c 3T3 mouse fibroblast cells and maintained in culture for 24 hrs. These plates were then pre-incubated with a range of eight different concentrations of test compound (six wells per concentration) for one hour. Next, one plate was treated with a UVA dose of 5 J/cm2 by irradiating for 50 min at 1.7 mW/cm2, whereas the other plate remained non-treated and in the dark. Next, the treatment medium was replaced with culture medium and cell viability was determined after 24 hrs by measuring neutral red uptake for 3 hrs. Finally, the 3T3 NRU Phototox Prediction Software (version 2.0, ZEBET) was used to calculate EC50 values and Photo-Irritant Factors (PIF) for each compound. […]

[7] = system: yeast; conditions: Ison and Davis, 1969; cited from earlier work
[8] = by 'injection'; Ison and Davis, 1969; cited from earlier work

Row | Mean peak concentration [2] [ng/mL] | Plasma conc on day 1 (ng/ml) 2 h ([2]; day 1, 2 h) [ng/mL] | Plasma conc on day 1 (ng/ml) 24 h ([2]; day 1, 24 h) [ng/mL] | Plasma conc. on day 7 (ng/ml) 2 h ([2]; day 7, 2 h) [ng/mL] | Plasma conc. on day 7 (ng/ml) 24 h ([2]; day 7, 24 h) [ng/mL] | Activity against P. falciparum TM91C235 (IC50 in ng/ml) [4] [ng/mL] | TM91C235 IC90 ([4]; Table 2) [µg/mL] | Compound | Outcome in Aotus, earlier studies ([1]; 10 mg/kg/day x7, WRAIR archival data) | Outcome in Aotus ([1]; 10 mg/kg/day x7 oral, groups of two, Cure = parasite free 90 days, R = average day of recrudescence, Failure = rescued with mefloquine) | Phototoxicity in mice [3] | Cure rate [5] | Photo Irritant Factor (PIF) [6] | Yeast minimum phototoxic concentration [7] [mg/ml^c] | Minimum phototoxic dose in mice [8] | Photo Irritant Factor (PIF) ([6]; UVA 5 J/cm2, potential to be phototoxic if PIF > 5.0)
1 | 307 | 597 | 11 | 16 | 5.6 | 11 | 0.052 | CCCCN(CCCC)CC(O)c1cc(-c2ccc(Cl)c(Cl)c2)nc2c(Cl)cc(Cl)cc12 (stereo not drawn) [WR030090] | cleared but did not cure infections | Failure | are phototoxic^d | at least 88% | 105.7 |  |  | 
2 |  |  |  |  |  |  |  | OC(c1cc(-c2ccccc2)nc2c(Cl)cc(Cl)cc12)C1CCCCN1 (stereo not drawn) [WR007930] |  |  |  |  |  | 31 | Minimum phototoxic dose is 7 mg/kg | 29.0
